Experimental data: ChEMBL document CHEMBL1201862, “PubChem BioAssay data set” (2004)
Calls of active or inactive are those of the source.

Tests used:
[1] = target: T1, Short transient receptor potential channel 4 (Mus musculus, UniProt Q9QUQ5); test: mouse TRPC4 channel activators, dose response, cell-based, HEK293 TRPC4/mu-opioid, Fluo-4 calcium (AID 434937); assay type: functional
T1 sequence (Q9QUQ5 whole entry): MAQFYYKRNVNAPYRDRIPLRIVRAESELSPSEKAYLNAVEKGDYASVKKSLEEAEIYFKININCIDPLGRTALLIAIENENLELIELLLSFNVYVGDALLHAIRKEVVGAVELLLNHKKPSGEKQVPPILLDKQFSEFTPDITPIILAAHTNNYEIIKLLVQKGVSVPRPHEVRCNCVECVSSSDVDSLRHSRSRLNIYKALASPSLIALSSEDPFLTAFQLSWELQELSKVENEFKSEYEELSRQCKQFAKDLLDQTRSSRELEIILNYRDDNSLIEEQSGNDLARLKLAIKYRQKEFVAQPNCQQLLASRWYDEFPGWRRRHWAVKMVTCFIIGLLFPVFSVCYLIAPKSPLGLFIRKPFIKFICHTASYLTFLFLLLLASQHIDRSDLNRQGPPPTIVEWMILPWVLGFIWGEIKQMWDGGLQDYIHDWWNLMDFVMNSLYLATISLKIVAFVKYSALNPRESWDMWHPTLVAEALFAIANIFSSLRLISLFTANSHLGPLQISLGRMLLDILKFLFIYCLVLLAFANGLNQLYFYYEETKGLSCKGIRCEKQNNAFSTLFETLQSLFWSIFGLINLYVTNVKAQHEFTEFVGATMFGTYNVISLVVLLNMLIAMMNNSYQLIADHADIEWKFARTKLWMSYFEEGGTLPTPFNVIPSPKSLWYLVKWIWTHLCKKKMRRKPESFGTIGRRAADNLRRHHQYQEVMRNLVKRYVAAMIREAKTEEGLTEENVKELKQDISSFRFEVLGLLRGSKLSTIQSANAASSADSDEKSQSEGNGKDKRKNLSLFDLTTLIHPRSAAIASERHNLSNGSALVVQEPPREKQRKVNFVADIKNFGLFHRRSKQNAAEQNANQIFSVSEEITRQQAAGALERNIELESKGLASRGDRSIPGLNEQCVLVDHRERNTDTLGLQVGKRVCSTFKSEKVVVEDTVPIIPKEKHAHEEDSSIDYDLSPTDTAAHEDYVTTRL

[2] = target: Cytochrome P450 2C9 (Homo sapiens, UniProt P11712)
[3] = target: Cytochrome P450 2D6 (Homo sapiens, UniProt P10635);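 note: CYP2D6 member of a cytochrome P450 panel assay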
[4] = Luminescence Cell-Based Dose Confirmation HTS to Identify Activators of 5'UTR Stem-Loop Driven Alpha-Synuclein mRNA Translation in H4 Neuroglioblastoma Cells. [Related pubchem assays: 1829 (Project Summary), 1814 (Primary HTS)]; assay type: functional
[5] = Luminescence Cell-Based Dose Response HTS to Identify Activators of Luciferase Translation or Activity in H4 […] Cells. [Related pubchem assays: 1829 (Project Summary), 1814 (Primary HTS)]; assay type: functional
[6] = system: H4; test: Luminescence Cell-Based Dose Response HTS to Identify Activators of 5'UTR Stem-Loop Driven Prion Protein mRNA Translation in H4 Neuroglioblastoma Cells. [Related pubchem assays: 1829 (Project Summary), 1814 (Primary HTS)]; assay type: functional; conditions: Homo sapiens
[7] = target: Cytochrome P450 2C19 (Homo sapiens, UniProt P33261); test: Cytochrome panel assay with activity outcomes. Panel member name: p450-cyp2c19 Compounds with AC50 equal or less than 10 uM are considered active; assay type: functional; conditions: read-out: AC50
[8] = target: Cytochrome P450 3A4 (Homo sapiens, UniProt P08684);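 note: CYP3A4 tested as one member of a cytochrome P450 panel screen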
[9] = system: Vero; test: cells; assay type: functional; conditions: Chlorocebus sabaeus
[10] = target: T1, Short transient receptor potential channel 4; test: mouse TRPC4 channel inhibitors, dose response, cell-based, HEK293 TRPC4/mu-opioid, Fluo-4 calcium (AID 434942); assay type: functional;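 note: potency of inhibitors blocking the TRPC4 calcium response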
[11] = system: H9c2; test: cells; assay type: functional, cell-based; conditions: Rattus norvegicus, H9c2, Myocardium;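 note: confirmatory concentration-response retest of ultra-high-throughput screening hits for modulation of myocardial damage; cell death induced by hydrogen peroxide oxidative stress; compound pretreatment for 60 min then peroxide exposure for 2 h; potency is for protecting the cells against peroxide damage rather than for killing them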
[12] = target: T2, Fatty acid synthase (Homo sapiens, UniProt P49327); test: FAS thioesterase domain inhibitors, dose response, biochemical, endpoint fluorescence intensity, uHTS hits (AID 624327); assay type: functional;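 note: fluorescence from hydrolysis of an O-methyl fluorescein acyl ester substrate by the enzyme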
[13] = target: T2, Fatty acid synthase; test: FAS thioesterase domain inhibitors, dose response, biochemical, kinetic fluorescence intensity (AID 624326); assay type: functional;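 note: rate of fluorescence rise from hydrolysis of a fluorogenic O-methyl fluorescein ester substrate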
[14] = target: Melanocortin receptor 4 (Homo sapiens, UniProt P32245); test: MC4R antagonist potency on cAMP, dose response, cell-based, TR-FRET, biased antagonists (AID 602298); assay type: functional;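 note: antagonist potency against agonist-stimulated cAMP production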
[15] = nonselective inhibitors of cellular cAMP signaling, dose response, counter-screen for MC4R biased antagonist project, cell-based, TR-FRET cAMP detection (AID 602305); assay type: functional;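 note: U2OS cells stimulated with forskolin near its EC80 as the cAMP inducer; potency is for inhibition of forskolin-stimulated cAMP signaling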

Sequence of Cytochrome P450 2C9 (P11712 whole entry): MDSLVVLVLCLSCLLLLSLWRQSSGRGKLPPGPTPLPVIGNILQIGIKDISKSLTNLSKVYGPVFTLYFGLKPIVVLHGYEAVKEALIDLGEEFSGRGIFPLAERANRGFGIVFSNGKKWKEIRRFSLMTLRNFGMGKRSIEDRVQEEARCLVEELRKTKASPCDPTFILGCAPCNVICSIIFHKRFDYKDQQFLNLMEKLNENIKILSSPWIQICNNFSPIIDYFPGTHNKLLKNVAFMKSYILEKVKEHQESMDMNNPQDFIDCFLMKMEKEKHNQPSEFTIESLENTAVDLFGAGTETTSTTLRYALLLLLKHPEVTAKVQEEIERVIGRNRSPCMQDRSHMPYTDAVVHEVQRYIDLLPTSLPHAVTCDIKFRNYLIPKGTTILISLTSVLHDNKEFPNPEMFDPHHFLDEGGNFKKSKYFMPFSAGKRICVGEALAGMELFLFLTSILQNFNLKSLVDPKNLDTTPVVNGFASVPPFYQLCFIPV
T2 sequence (P49327 whole entry, the tested form may be a part): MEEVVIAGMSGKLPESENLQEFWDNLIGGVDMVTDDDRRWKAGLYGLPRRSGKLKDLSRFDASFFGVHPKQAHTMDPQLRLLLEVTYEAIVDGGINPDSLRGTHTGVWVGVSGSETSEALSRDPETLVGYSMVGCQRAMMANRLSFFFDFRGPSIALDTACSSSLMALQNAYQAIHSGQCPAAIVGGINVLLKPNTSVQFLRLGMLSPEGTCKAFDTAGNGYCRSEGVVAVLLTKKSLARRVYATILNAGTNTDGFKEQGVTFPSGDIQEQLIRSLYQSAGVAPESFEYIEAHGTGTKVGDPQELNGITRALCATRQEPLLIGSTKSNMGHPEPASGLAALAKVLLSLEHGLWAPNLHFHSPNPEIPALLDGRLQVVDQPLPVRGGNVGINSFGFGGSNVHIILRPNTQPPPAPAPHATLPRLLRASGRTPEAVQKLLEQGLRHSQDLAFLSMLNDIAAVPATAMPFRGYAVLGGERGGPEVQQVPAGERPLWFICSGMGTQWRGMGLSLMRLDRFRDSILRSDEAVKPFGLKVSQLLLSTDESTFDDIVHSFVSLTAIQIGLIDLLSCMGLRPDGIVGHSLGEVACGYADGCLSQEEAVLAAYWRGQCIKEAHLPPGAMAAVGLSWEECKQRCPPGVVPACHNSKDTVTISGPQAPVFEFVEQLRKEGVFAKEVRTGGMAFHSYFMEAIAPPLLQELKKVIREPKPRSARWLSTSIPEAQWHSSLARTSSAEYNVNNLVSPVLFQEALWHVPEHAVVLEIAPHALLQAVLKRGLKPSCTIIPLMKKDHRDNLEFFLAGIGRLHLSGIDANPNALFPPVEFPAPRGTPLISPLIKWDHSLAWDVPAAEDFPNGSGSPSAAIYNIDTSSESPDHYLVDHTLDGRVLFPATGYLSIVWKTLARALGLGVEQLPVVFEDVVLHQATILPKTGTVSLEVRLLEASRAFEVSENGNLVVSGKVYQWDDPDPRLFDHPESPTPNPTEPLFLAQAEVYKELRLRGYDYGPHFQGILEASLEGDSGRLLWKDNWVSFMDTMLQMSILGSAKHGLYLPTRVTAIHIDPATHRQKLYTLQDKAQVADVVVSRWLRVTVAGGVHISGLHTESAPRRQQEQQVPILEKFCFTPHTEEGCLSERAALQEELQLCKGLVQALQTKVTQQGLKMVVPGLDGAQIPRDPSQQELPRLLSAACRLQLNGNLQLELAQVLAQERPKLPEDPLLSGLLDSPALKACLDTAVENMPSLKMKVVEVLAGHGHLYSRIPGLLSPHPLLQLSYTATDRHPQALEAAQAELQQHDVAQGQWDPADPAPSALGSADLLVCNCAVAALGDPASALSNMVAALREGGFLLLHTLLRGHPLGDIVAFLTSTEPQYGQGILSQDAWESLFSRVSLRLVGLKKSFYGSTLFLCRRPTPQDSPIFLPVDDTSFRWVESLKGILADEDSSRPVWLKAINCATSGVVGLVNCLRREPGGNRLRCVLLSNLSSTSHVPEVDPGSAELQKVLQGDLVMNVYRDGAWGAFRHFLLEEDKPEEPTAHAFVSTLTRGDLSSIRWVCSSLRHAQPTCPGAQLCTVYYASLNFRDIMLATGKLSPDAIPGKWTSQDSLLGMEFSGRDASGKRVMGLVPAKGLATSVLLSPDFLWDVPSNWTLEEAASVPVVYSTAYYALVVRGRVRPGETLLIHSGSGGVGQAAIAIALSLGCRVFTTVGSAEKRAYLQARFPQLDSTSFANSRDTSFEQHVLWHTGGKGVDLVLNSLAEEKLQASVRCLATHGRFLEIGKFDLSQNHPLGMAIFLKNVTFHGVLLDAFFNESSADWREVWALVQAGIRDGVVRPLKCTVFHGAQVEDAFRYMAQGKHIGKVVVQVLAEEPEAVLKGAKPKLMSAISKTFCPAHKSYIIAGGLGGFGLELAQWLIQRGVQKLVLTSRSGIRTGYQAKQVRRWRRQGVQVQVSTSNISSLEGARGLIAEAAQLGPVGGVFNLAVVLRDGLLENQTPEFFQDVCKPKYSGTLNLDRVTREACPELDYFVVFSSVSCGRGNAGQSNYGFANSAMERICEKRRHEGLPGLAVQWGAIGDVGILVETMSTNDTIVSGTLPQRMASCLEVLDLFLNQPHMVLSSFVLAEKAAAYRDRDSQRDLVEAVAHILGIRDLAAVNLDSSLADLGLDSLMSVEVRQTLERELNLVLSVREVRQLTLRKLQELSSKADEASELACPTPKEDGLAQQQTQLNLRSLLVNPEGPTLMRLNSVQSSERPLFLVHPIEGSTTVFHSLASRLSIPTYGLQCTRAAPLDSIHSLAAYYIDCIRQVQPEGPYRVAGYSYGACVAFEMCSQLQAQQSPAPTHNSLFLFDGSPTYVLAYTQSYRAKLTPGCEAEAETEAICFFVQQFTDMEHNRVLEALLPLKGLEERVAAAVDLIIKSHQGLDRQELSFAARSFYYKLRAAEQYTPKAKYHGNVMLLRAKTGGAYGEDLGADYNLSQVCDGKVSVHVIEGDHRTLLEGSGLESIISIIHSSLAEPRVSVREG
Sequence of Cytochrome P450 2C19 (P33261 whole entry): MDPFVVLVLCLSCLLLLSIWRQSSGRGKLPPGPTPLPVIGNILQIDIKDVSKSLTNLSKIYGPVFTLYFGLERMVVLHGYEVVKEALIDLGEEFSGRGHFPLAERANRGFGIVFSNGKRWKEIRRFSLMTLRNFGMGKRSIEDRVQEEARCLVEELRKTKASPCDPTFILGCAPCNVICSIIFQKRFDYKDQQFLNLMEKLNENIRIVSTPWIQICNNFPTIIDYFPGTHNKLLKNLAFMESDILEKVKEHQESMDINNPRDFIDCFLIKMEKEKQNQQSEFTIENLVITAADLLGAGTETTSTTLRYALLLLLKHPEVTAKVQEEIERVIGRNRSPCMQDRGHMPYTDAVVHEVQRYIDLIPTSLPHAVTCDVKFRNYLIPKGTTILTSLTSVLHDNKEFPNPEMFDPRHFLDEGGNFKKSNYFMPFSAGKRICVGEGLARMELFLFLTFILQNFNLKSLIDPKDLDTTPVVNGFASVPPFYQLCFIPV
Sequence of Melanocortin receptor 4 (P32245 whole entry): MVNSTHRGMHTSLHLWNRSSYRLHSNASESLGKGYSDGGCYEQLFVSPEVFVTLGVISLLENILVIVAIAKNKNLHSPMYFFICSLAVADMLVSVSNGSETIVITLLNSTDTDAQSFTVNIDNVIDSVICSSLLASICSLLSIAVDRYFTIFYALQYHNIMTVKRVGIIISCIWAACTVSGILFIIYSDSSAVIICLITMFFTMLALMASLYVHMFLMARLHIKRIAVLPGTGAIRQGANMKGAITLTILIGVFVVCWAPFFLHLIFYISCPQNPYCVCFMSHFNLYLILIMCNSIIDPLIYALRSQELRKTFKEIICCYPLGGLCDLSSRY
Sequence of Cytochrome P450 2D6 (P10635 whole entry): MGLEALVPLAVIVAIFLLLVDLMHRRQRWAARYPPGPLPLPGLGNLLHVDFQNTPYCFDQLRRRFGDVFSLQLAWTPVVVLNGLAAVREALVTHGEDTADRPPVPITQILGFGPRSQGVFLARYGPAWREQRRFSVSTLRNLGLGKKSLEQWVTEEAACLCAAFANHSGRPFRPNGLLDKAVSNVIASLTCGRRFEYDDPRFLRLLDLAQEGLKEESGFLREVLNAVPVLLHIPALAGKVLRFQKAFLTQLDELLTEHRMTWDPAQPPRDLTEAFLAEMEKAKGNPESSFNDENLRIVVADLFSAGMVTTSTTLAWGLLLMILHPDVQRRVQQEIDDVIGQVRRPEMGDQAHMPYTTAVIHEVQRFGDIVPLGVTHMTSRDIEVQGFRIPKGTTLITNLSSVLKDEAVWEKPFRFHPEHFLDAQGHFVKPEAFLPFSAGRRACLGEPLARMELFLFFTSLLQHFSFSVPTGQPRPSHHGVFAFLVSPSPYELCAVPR
Sequence of Cytochrome P450 3A4 (P08684 whole entry): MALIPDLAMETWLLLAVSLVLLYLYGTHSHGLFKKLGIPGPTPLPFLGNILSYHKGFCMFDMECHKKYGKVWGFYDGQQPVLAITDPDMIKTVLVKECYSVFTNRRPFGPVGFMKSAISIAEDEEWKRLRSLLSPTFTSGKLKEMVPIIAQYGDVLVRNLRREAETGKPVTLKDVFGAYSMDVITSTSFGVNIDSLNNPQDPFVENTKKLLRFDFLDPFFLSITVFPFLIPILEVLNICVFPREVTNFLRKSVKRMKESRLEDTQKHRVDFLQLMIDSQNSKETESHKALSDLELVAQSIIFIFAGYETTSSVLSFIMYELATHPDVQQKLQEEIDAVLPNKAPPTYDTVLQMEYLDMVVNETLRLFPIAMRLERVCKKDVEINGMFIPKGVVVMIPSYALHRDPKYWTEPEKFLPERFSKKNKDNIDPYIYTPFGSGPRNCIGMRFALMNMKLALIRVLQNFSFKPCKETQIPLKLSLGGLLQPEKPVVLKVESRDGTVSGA

For `Cc1sc2ncnc(NCC(c3ccco3)N(C)C)c2c1C` (stereo not drawn), the EC50 [1] was 0.841 µM (active).

For `FC(F)(F)c1ccccc1-c1nccc(N2CCNCC2)n1`, the AC50 [2] was “inconclusive”.

In the case of `COc1ccc(C(=O)c2ccccc2)cc1Br`, the AC50 [3] is reported as 22.4 µM (inconclusive) and the AC50 [2] is reported as “inconclusive”.

In the case of `CCCCN1C(=O)C(=O)N(CC(=O)N2N=C3/C(=C/c4ccco4)CCCC3C2c2ccco2)C1=O` (stereo not drawn), the EC50 [4] is reported as > 120 µM (not active), the EC50 [5] is reported as 14.8 µM (active) and the EC50 [6] is reported as 19.6 µM (active).

In the case of `N#Cc1nc(-c2ccc(F)cc2)oc1N1CCCC1`, the AC50 [7] is reported as 14.1 µM (inconclusive), the AC50 [8] is reported as 14.1 µM (inconclusive) and the AC50 [2] is reported as “inconclusive”.

In the case of `COc1ccc2cc(C(=O)NCCc3ccccc3)[nH]c2c1`, the EC50 [4] is reported as 43.2 µM (active), the EC50 [5] is reported as 48 µM (active) and the EC50 [6] is reported as 99.5 µM (active).

With `COc1cc(C(=O)NC(=S)NNC(=O)c2ccc3c(c2)OCO3)cc(OC)c1OC` the CC50 [9] was 20.2 µM (active).

For `COc1ccc(C)cc1N(C(=O)c1snc(C(N)=O)c1N)C(C(=O)NC1CCCCC1)c1ccc(C)o1` (stereo not drawn), the EC50 [10] was 0.211 µM (active).

With `COc1ccc(C2=NOC(COc3ccc4c(C)cc(=O)oc4c3)C2)c(OC)c1` (stereo not drawn) the CC50 [9] was 7.23 µM (active).

In the case of `Cc1ccc(-c2nnc3ccc(SCC(=O)N4CCCc5ccccc54)nn23)cc1`, the IC50 [11] is reported as 38.4 µM (inactive), the IC50 [12] is reported as 4.07 µM (active) and the IC50 [13] is reported as 5.68 µM (active).

In the case of `Brc1cc2c(cc1COc1ccc(-c3nn[nH]n3)cc1)OCO2`, the EC50 [10] is reported as 5.31 µM (active).

In the case of `COc1cc(OC)c2ccc(=O)oc2c1C(CC(=O)N1CCN(c2ccccc2)CC1)c1ccc2c(c1)OCO2` (stereo not drawn), the IC50 [11] is reported as > 79 µM (inactive).

With `CCN(CC)S(=O)(=O)c1ccc(Cl)c(C(=O)OC2CC(C)OC2=O)c1` (stereo not drawn) the IC50 [14] was > 64.6 µM (inactive) and the IC50 [15] was > 64.6 µM (inactive).
